For orientation: inhibition means how much of the control response was suppressed. The low end stands for a response near the control, the high end for a response far below the control.

Data set [1] relates to A549. Description: Induction of apoptosis in human A549 cells assessed as late apoptotic cells at 9 uM after 72 hrs by Annexin V-FITC/propidium iodide staining-based flow cytometric analysis (reference value: 1.24%). Type of data set: functional.
A short description of data set [2]: Metabolic stability in mouse liver microsomes assessed as compound remaining at 1 uM measured up to 1 hr in absence of NADPH by LC-MS/MS analysis. Type of data set: ADME, Microsome. The conditions noted are these: read-out: Stability. Background: Liver microsomes are vesicles of endoplasmic reticulum, rich in cytochrome P450 enzymes.
The test system of data set [3] is A549. Put plainly: Induction of apoptosis in human A549 cells assessed as early apoptotic cells at 3 uM after 72 hrs by Annexin V-FITC/propidium iodide staining-based flow cytometric analysis (reference value: 2.40%). Type of data set: functional. A general note: Flow cytometry measures light scatter and fluorescence of single cells or particles in a stream.
Data set [4] concerns A549. Description: Induction of apoptosis in human A549 cells after 72 hrs by Annexin V-FITC/propidium iodide staining-based flow cytometric analysis. Type of data set: functional, cell-based.
Data set [5] in a line: Intrinsic clearance in rat liver microsomes at 1 uM measured up to 1 hr in presence of NADPH by LC-MS/MS analysis. Type of data set: ADME, Microsome. The conditions noted are these: read-out: CLH.
A further data set has as its target CYP2C19 (Homo sapiens, UniProt P33261). Description: Inhibition of CYP2C19 in human pooled liver microsomes at 10 uM using S-mephenytoin as substrate preincubated for 10 mins followed by NADPH addition and measured after 15 mins by LC/MS/MS analysis relative to control. Type of data set: ADME. As to conditions: probe S-mephenytoin.
Data set [6] in a line: Metabolic stability in human liver microsomes assessed as compound remaining at 1 uM measured up to 1 hr in absence of NADPH by LC-MS/MS analysis. Type of data set: ADME, Microsome. As to conditions: read-out: Stability.
Data set [7] is described as follows: Metabolic stability in rat liver microsomes assessed as compound remaining at 1 uM measured up to 1 hr in absence of NADPH by LC-MS/MS analysis. Type of data set: ADME, Microsome. The conditions noted are these: read-out: Stability.
The target in a further data set is CYP2C9 (Homo sapiens, UniProt P11712). Description: Inhibition of CYP2C9 in human pooled liver microsomes at 10 uM using diclofenac as substrate preincubated for 10 mins followed by NADPH addition and measured after 15 mins by LC/MS/MS analysis relative to control. As to conditions: probe diclofenac. Type of data set: ADME.
Sequence of CYP2C9 (P11712 whole entry): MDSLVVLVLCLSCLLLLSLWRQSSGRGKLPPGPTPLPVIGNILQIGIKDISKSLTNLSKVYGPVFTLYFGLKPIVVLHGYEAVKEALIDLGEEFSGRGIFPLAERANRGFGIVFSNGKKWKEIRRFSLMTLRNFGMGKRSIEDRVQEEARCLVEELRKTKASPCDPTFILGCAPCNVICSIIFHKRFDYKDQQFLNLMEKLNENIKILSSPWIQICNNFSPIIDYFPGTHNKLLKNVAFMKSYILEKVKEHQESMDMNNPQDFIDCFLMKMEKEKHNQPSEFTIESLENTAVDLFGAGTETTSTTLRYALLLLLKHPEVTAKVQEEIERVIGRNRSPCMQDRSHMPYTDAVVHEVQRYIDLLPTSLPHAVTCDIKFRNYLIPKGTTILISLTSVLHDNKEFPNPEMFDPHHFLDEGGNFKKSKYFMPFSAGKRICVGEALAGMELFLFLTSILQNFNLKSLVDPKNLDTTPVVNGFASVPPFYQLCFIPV
For data set [8], the system named is A549. Put plainly: Induction of apoptosis in human A549 cells assessed as late apoptotic cells at 3 uM after 72 hrs by Annexin V-FITC/propidium iodide staining-based flow cytometric analysis (reference value: 1.24%). Type of data set: functional.
The test system of data set [9] is A549. Put plainly: Induction of apoptosis in human A549 cells assessed as early apoptotic cells at 9 uM after 72 hrs by Annexin V-FITC/propidium iodide staining-based flow cytometric analysis (reference value: 2.40%). Type of data set: functional.
For data set [10], the system named is A549. Put plainly: Induction of apoptosis in human A549 cells assessed as necrotic cells at 9 uM after 72 hrs by Annexin V-FITC/propidium iodide staining-based flow cytometric analysis (reference value: 1.70%). Type of data set: functional.

Sequence of CYP2C19 (P33261 whole entry): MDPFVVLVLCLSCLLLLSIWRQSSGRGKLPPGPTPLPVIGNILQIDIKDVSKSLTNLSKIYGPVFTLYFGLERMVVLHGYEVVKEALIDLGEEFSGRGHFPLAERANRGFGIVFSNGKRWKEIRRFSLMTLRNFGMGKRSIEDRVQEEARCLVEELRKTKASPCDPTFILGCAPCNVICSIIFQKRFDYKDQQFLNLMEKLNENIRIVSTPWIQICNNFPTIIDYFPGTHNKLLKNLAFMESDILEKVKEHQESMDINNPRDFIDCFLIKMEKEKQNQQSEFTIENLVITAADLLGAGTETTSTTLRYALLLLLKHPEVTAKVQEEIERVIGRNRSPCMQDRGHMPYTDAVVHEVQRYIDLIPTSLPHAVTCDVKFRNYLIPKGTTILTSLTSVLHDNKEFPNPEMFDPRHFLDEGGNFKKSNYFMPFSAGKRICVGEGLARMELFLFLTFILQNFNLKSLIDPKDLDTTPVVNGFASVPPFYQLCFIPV

For `COc1cc(C(=O)NC2CCNCC2)ccc1Nc1nc(Nc2ccccc2P(C)(C)=O)c2cc[nH]c2n1`, the Activity in the data set with A549 [1] was 36.59%; with A549 [3] it was 17.3%; in the data set on A549 [4], “Dose-dependent effect”; in the data set on A549 [8], 25.09%; in the data set with A549 [9], 30.12%; in the data set on A549 [10] it was 4.15%. Moreover, the remaining at 1 h, 1 µM in data set [2] was determined as 78%; in data set [6], 81.2%; in data set [7] it was 76.3%. Also, the microsomal CLint at 1 µM in data set [5] is below 9.6 µL/min/mg. Further, the inhibition at 0.25 h, 10 µM was 4.9% at CYP2C19 and 11.5% against CYP2C9.

For the origin of these results see ChEMBL document CHEMBL4311976, “Design, synthesis and biological evaluation of novel 7H-pyrrolo[2,3-d]pyrimidine derivatives as potential FAK inhibitors and anticancer agents” (Eur J Med Chem, 2019).
